Data as given in paper PMC11950852, “Diversity Scale of Library Matters: Impact of mRNA Library Diversity Scales on the Discovery of Macrocyclic Peptides Targeting a Protein by the RaPID System” (ACS Central Science, 2025).
Where a SMILES comes first, the peptide text is derived from it. Bridges are numbered along the chain shown (N, C = ends). Where no end group is shown, it is not given here. [ ]: non-standard residue; d: D form.

T1: ectodomain of MET fused to Fc (UniProt P08581 25-932)
T1 chain: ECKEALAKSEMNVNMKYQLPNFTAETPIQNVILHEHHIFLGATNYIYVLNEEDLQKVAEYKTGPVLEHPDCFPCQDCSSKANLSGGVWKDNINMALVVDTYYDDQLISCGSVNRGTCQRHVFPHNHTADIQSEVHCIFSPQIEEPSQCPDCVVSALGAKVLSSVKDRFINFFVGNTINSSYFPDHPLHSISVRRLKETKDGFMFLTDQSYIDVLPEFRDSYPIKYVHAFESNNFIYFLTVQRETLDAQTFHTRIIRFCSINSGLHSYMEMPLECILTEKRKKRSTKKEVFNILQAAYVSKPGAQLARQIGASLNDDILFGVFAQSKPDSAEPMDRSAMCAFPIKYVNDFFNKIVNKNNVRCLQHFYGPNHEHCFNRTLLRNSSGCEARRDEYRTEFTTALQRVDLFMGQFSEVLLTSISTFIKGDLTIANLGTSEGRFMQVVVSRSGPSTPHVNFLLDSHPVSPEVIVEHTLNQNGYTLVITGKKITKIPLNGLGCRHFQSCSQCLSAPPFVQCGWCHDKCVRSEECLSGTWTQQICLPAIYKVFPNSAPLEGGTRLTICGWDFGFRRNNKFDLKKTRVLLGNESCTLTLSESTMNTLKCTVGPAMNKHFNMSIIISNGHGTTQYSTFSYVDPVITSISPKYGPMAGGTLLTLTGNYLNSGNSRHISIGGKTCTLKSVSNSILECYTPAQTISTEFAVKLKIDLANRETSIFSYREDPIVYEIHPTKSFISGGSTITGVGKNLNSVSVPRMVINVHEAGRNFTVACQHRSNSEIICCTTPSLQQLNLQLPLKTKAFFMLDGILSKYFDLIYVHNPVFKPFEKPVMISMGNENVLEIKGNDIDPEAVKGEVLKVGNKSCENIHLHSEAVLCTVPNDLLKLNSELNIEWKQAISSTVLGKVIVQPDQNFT

B1: 8–2 (peptide)
chain: {CH2CO}-YYHWNGRDGDKVEWVVCG-NH2
modifications: thioether N-17
SMILES: CC(C)[C@@H]1NC(=O)[C@H](CCCCN)NC(=O)[C@H](CC(=O)O)NC(=O)CNC(=O)[C@H](CC(=O)O)NC(=O)[C@H](CCCNC(=N)N)NC(=O)CNC(=O)[C@H](CC(N)=O)NC(=O)[C@H](Cc2c[nH]c3ccccc23)NC(=O)[C@H](Cc2c[nH]cn2)NC(=O)[C@H](Cc2ccc(O)cc2)NC(=O)[C@H](Cc2ccc(O)cc2)NC(=O)CSC[C@@H](C(=O)NCC(N)=O)NC(=O)[C@H](C(C)C)NC(=O)[C@H](C(C)C)NC(=O)[C@H](Cc2c[nH]c3ccccc23)NC(=O)[C@H](CCC(=O)O)NC1=O
B2: 12–2 (peptide)
chain: {CH2CO}-YYSWSGNVSESVKWNSCG-NH2
modifications: thioether N-17
SMILES: CC(C)[C@@H]1NC(=O)[C@H](CC(N)=O)NC(=O)CNC(=O)[C@H](CO)NC(=O)[C@H](Cc2c[nH]c3ccccc23)NC(=O)[C@H](CO)NC(=O)[C@H](Cc2ccc(O)cc2)NC(=O)[C@H](Cc2ccc(O)cc2)NC(=O)CSC[C@@H](C(=O)NCC(N)=O)NC(=O)[C@H](CO)NC(=O)[C@H](CC(N)=O)NC(=O)[C@H](Cc2c[nH]c3ccccc23)NC(=O)[C@H](CCCCN)NC(=O)[C@H](C(C)C)NC(=O)[C@H](CO)NC(=O)[C@H](CCC(=O)O)NC(=O)[C@H](CO)NC1=O
B3: 10–1 (peptide)
chain: {CH2CO}-YYSWSGSVSESVKWNSCG-NH2
modifications: thioether N-17
SMILES: CC(C)[C@@H]1NC(=O)[C@H](CO)NC(=O)CNC(=O)[C@H](CO)NC(=O)[C@H](Cc2c[nH]c3ccccc23)NC(=O)[C@H](CO)NC(=O)[C@H](Cc2ccc(O)cc2)NC(=O)[C@H](Cc2ccc(O)cc2)NC(=O)CSC[C@@H](C(=O)NCC(N)=O)NC(=O)[C@H](CO)NC(=O)[C@H](CC(N)=O)NC(=O)[C@H](Cc2c[nH]c3ccccc23)NC(=O)[C@H](CCCCN)NC(=O)[C@H](C(C)C)NC(=O)[C@H](CO)NC(=O)[C@H](CCC(=O)O)NC(=O)[C@H](CO)NC1=O

How the values were obtained:
[1] = molecular target: Fc-fused MET (His-/hFc-tagged human MET ectodomain) (Homo sapiens, UniProt P08581); experiment: SPR binding kinetics of selected macrocyclic peptides to Fc-fused MET; settings: for kon: pH 7.4, read-out: ka
[2] = molecular target: T2, ectodomain of MET fused to Fc (UniProt P08581 25-932); experiment: SPR; fitted by a 1:1 binding model; who was immobilised and the conditions are in the Supporting Information (not shown); settings: both partners purified
T2 construct: MET (hepatocyte growth factor receptor), a receptor tyrosine kinase; also called MET-Fc; Fc-tagged MET

[3] = molecular target: T1, ectodomain of MET fused to Fc; experiment: SPR

| Molecule | kd ([1]; SPR conditions as E1) [s⁻¹] | kon [1] [M⁻¹ s⁻¹] | koff [2] [s⁻¹] | koff [3] [s⁻¹] | also measured |
| --- | --- | --- | --- | --- | --- |
| CC[C@H](C)[C@@H]1NC(=O)[C@H](C(C)C)NC(=O)[C@H](Cc2c[nH]c3ccccc23)NC(=O)[C@H](CC(=O)O)NC(=O)[C@H](CO)NC(=O)[C@H](CO)NC(=O)[C@H](CC(=O)O)NC(=O)[C@H](Cc2ccc(O)cc2)NC(=O)[C@H](Cc2ccc(O)cc2)NC(=O)[C@H](CCCCN)NC(=O)[C@H](Cc2c[nH]c3ccccc23)NC(=O)[C@H](CO)NC(=O)[C@H](CC(C)C)NC(=O)[C@H](Cc2ccc(O)cc2)NC(=O)CSC[C@@H](C(=O)NCC(N)=O)NC(=O)[C@H](CO)NC(=O)[C@H](CC(C)C)NC1=O [14-5] ({CH2CO}-YLSWKYYDSSDWVILSCG-NH2; thioether N-17) | 0.00836 | 129000 |  |  |  |
| CC(C)[C@@H]1NC(=O)[C@H](CO)NC(=O)CNC(=O)[C@H](CO)NC(=O)[C@H](Cc2c[nH]c3ccccc23)NC(=O)[C@H](CO)NC(=O)[C@H](Cc2ccc(O)cc2)NC(=O)[C@H](Cc2ccc(O)cc2)NC(=O)CSC[C@@H](C(=O)NCC(N)=O)NC(=O)[C@H](CO)NC(=O)[C@H](CC(N)=O)NC(=O)[C@H](Cc2c[nH]c3ccccc23)NC(=O)[C@H](CCCCN)NC(=O)[C@H](C(C)C)NC(=O)[C@H](CO)NC(=O)[C@H](CCC(=O)O)NC(=O)[C@H](CO)NC1=O [10-1] ({CH2CO}-YYSWSGSVSESVKWNSCG-NH2; thioether N-17) | 0.00878 | 871000 |  |  | Kd ([1]; KD, SPR conditions as E1, 1:1 binding model): 10.1 nM; kd (quoted in text) ([1]; SPR conditions as E1): ~10 × 10^–3 s^–1 |
| CC(C)[C@@H]1NC(=O)[C@H](CC(N)=O)NC(=O)CNC(=O)[C@H](CO)NC(=O)[C@H](Cc2c[nH]c3ccccc23)NC(=O)[C@H](CO)NC(=O)[C@H](Cc2ccc(O)cc2)NC(=O)[C@H](Cc2ccc(O)cc2)NC(=O)CSC[C@@H](C(=O)NCC(N)=O)NC(=O)[C@H](CO)NC(=O)[C@H](CC(N)=O)NC(=O)[C@H](Cc2c[nH]c3ccccc23)NC(=O)[C@H](CCCCN)NC(=O)[C@H](C(C)C)NC(=O)[C@H](CO)NC(=O)[C@H](CCC(=O)O)NC(=O)[C@H](CO)NC1=O [12-2] ({CH2CO}-YYSWSGNVSESVKWNSCG-NH2; thioether N-17) | 0.00413 | 476000 |  |  |  |
| CC[C@H](C)[C@@H]1NC(=O)[C@H](CCCCN)NC(=O)[C@@H](NC(=O)[C@H](CCC(=O)O)NC(=O)[C@@H](NC(=O)[C@H](Cc2c[nH]c3ccccc23)NC(=O)[C@H](CC(C)C)NC(=O)[C@@H]2CSCC(=O)N[C@@H](Cc3ccc(O)cc3)C(=O)N[C@@H](CC(N)=O)C(=O)N2)C(C)C)CSSC[C@@H](C(=O)NCC(N)=O)NC(=O)[C@H](CCCNC(=N)N)NC(=O)CNC(=O)[C@H](CC(N)=O)NC(=O)[C@@H]2CCCN2C(=O)[C@H](CC(C)C)NC(=O)[C@H](C(C)C)NC1=O [12-4] ({CH2CO}-YNCLWVECKIVLPNGRCG-NH2; disulfide 8-17; thioether N-3) | 0.00721 | 456000 |  |  | kd (quoted in text) ([1]; SPR conditions as E1): 7.21 × 10^–3 s^–1 |
| CC(C)C[C@@H]1NC(=O)[C@H](Cc2ccc(O)cc2)NC(=O)CSC[C@@H](C(=O)NCC(N)=O)NC(=O)[C@H](CC(=O)O)NC(=O)[C@H](C(C)C)NC(=O)[C@H](Cc2ccc(O)cc2)NC(=O)[C@H](C(C)C)NC(=O)[C@H](Cc2c[nH]c3ccccc23)NC(=O)[C@H](CC(=O)O)NC(=O)[C@H](CCCCN)NC(=O)[C@H](CC(N)=O)NC(=O)[C@H](CC(=O)O)NC(=O)[C@H](Cc2ccc(O)cc2)NC(=O)[C@H](CCCCN)NC(=O)[C@H](Cc2c[nH]cn2)NC(=O)[C@H](Cc2c[nH]c3ccccc23)NC(=O)[C@H](CC(C)C)NC1=O [10-5] ({CH2CO}-YLLWHKYDNKDWVYVDCG-NH2; thioether N-17) | 0.00694 | 356000 |  |  |  |
| CC[C@H](C)[C@@H]1NC(=O)[C@H](Cc2ccc(O)cc2)NC(=O)CSC[C@@H](C(=O)NCC(N)=O)NC(=O)[C@H](CS)NC(=O)[C@H](CC(N)=O)NC(=O)[C@H](CS)NC(=O)[C@H](CC(N)=O)NC(=O)[C@H](Cc2c[nH]c3ccccc23)NC(=O)[C@H](CC(C)C)NC(=O)[C@H](CCCCN)NC(=O)[C@H](CO)NC(=O)[C@H](CC(N)=O)NC(=O)[C@H](Cc2ccccc2)NC(=O)[C@H](CCCNC(=N)N)NC(=O)[C@H](CC(N)=O)NC(=O)[C@H](Cc2c[nH]c3ccccc23)NC(=O)[C@H](CCC(=O)O)NC1=O [10-4] ({CH2CO}-YIEWNRFNSKLWNCNCCG-NH2; thioether N-17) | 0.00809 | 26300 |  |  |  |
| C[C@@H]1NC(=O)[C@H](C)NC(=O)[C@H](CC(=O)O)NC(=O)[C@H](Cc2ccc(O)cc2)NC(=O)[C@H](CCC(=O)O)NC(=O)[C@H](CCC(=O)O)NC(=O)[C@H](Cc2c[nH]c3ccccc23)NC(=O)[C@H](CCCNC(=N)N)NC(=O)CNC(=O)[C@H](CC(=O)O)NC(=O)[C@H](Cc2ccccc2)NC(=O)[C@H]([C@@H](C)O)NC(=O)[C@H](Cc2ccc(O)cc2)NC(=O)[C@H](Cc2ccc(O)cc2)NC(=O)[C@H](Cc2c[nH]c3ccccc23)NC(=O)[C@H](Cc2ccc(O)cc2)NC(=O)CSC[C@@H](C(=O)NCC(N)=O)NC1=O [8-3] ({CH2CO}-YWYYTFDGRWEEYDAACG-NH2; thioether N-17) | 0.0464 | 233000 |  |  | ka ([1]; SPR conditions as E1): 2.33 × 10^5 M^–1 s^–1; kd (quoted in text) ([1]; SPR conditions as E1): 46.4 × 10^–3 s^–1 |
| {CH2CO}-YSWYLNWQAQWKKFEFCG (thioether N-17 (inferred)) [6–1] |  |  | 0.0518 |  |  |
| {CH2CO}-[dY]RQFNRRTHEVWNLDCG (thioether N-16 (inferred)) [aMD4] |  |  |  | 0.00676 | Kd [2]: 3.7 nM |
| {CH2CO}-YIEWNRFNSKLWNCNCCG (thioether N-17; cysteine pairing not given here) [10–4] |  |  |  | 0.00809 |  |
| B1 |  |  | 0.0103 |  |  |
| B2 |  |  |  | 0.00413 |  |
| {CH2CO}-YWWYYWYRDEYLWRTRCG (thioether N-17 (inferred)) [10–6] |  |  |  | 0.00489 |  |
| {CH2CO}-YWYYTFDGRWKEYGAACG (thioether N-17 (inferred)) [8–1] |  |  | 0.0427 |  |  |
| B3 |  |  | ~0.01 | 0.00878 |  |
| {CH2CO}-YWYYTFDGRWEEYDAACG (thioether N-17 (inferred)) [8–3] |  |  | 0.0464 |  | Kd [2]: 199 nM |
